Reference: paper PMC10382584, “Macrocyclization of linear molecules by deep learning to facilitate macrocyclic drug candidates discovery” (Nature Communications, 2023)

Legend:
Assay in all cases: biochemical
Parameters in all cases: DiscoveRx KINOMEscan competition binding, percent of DMSO control signal at 100 nM
Details in all cases: read-out: Fig. 4a / Percent Control / Compound 1; percent of DMSO control, competition binding
CASK = CASK (Homo sapiens, UniProt O14936)
FLT3(D835V) = FLT3(D835V) (Homo sapiens, UniProt P36888, D835V)
PCTK2 = biological target: T1, PCTK2 (Homo sapiens, UniProt Q00537)
T1 construct: gene CDK17

[1] = biological target: T2, RPS6KA4(Kin.Dom.1-N-terminal) (Homo sapiens, UniProt O75676)
T2 construct: Kin.Dom.1-N-terminal

NEK5 = NEK5 (Homo sapiens, UniProt Q6P3R8)
BRAF(V600E) = BRAF(V600E) (Homo sapiens, UniProt P15056, V600E)
Chain of BRAF(V600E) (P15056 whole entry V600E): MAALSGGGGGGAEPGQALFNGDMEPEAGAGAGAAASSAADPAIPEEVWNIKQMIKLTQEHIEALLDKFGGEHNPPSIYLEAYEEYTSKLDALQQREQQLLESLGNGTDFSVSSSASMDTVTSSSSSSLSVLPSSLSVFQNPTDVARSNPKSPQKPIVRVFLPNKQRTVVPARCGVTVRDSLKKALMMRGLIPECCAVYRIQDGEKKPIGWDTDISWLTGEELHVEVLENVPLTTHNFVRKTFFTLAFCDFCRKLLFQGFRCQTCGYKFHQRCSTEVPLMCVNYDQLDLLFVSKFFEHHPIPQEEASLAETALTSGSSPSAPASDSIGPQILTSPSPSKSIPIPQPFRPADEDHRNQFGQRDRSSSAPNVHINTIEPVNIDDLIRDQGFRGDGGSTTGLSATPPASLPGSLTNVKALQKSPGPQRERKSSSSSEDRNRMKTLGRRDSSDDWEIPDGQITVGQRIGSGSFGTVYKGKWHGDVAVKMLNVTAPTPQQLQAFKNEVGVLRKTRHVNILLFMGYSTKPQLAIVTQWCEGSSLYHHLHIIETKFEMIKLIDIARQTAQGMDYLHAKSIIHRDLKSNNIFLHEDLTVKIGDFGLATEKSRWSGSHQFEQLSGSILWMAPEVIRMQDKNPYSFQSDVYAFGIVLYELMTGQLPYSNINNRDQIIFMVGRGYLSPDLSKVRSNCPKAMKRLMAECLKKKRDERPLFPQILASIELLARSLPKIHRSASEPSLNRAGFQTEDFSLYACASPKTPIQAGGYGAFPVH

[2] = biological target: EGFR(L747-S752del, P753S) (Homo sapiens, UniProt P00533, DEL747-752/P753S)
PIM3 = PIM3 (Homo sapiens, UniProt Q86V86)
RIPK5 = biological target: T3, RIPK5 (Homo sapiens, UniProt Q6XUX3)
T3 construct: gene DSTYK
T3 sequence (Q6XUX3 whole entry): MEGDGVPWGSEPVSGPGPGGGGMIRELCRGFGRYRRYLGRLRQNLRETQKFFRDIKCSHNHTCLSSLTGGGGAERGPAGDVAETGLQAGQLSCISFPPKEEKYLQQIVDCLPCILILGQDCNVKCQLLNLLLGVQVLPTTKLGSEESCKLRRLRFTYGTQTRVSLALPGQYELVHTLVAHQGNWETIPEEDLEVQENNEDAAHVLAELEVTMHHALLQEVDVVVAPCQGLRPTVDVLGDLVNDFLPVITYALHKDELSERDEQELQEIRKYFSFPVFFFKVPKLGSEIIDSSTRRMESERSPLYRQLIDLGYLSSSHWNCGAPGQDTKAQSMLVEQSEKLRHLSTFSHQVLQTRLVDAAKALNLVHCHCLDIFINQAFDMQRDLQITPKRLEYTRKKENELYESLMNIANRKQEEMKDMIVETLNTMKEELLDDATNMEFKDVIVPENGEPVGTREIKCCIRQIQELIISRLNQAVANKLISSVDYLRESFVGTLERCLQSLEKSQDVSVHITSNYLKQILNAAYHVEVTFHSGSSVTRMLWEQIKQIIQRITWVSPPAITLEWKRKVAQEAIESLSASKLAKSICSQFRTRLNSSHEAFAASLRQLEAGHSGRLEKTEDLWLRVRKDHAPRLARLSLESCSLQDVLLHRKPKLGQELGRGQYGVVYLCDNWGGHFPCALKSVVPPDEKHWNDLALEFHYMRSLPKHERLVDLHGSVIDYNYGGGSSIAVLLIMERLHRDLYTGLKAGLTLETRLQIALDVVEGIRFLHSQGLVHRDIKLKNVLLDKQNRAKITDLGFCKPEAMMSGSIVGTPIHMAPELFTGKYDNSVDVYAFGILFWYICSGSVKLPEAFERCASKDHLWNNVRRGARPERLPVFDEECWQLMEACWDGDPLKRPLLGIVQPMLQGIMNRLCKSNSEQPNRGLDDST

CDK4-cyclinD3 = biological target: T4, CDK4-cyclinD3 (Homo sapiens, UniProt P11802)
T4 construct: cyclinD3

CAMK1 = CAMK1 (Homo sapiens, UniProt Q14012)
TTK = TTK (Homo sapiens, UniProt P33981)
CLK2 = CLK2 (Homo sapiens, UniProt P49760)
AMPK-alpha2 = biological target: T5, AMPK-alpha2 (Homo sapiens, UniProt P54646)
T5 construct: gene PRKAA2

ULK3 = ULK3 (Homo sapiens, UniProt Q6PHR2)
Chain of ULK3 (Q6PHR2 whole entry): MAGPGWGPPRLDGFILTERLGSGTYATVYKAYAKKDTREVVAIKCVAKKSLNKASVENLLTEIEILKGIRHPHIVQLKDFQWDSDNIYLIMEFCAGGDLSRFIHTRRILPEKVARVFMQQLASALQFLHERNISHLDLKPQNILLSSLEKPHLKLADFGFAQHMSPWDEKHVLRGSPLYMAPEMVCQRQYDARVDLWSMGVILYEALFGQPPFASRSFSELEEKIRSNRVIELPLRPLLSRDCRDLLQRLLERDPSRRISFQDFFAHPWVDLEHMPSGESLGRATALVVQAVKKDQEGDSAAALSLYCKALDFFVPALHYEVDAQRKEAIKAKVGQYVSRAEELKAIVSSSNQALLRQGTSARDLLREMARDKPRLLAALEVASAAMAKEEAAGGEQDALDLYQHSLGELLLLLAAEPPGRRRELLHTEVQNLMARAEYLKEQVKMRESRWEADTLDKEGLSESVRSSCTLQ

LYN = LYN (Homo sapiens, UniProt P07948)
Chain of LYN (P07948 whole entry): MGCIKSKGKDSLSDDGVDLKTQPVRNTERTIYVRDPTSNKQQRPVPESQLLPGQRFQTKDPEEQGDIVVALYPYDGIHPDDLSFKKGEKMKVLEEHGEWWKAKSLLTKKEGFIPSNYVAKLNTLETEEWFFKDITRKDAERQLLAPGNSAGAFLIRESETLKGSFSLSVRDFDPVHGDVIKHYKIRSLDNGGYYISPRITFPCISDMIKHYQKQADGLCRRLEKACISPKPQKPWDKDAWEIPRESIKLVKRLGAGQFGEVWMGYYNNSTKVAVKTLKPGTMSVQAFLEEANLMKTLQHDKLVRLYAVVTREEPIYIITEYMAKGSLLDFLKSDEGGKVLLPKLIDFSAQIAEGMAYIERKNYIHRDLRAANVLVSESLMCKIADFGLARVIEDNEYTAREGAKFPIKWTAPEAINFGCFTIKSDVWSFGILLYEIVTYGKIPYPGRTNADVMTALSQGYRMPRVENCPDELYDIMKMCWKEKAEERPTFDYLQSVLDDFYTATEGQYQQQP

WNK1 = WNK1 (Homo sapiens, UniProt Q9H4A3)
MAP4K3 = MAP4K3 (Homo sapiens, UniProt Q8IVH8)
AKT1 = AKT1 (Homo sapiens, UniProt P31749)
Chain of AKT1 (P31749 whole entry): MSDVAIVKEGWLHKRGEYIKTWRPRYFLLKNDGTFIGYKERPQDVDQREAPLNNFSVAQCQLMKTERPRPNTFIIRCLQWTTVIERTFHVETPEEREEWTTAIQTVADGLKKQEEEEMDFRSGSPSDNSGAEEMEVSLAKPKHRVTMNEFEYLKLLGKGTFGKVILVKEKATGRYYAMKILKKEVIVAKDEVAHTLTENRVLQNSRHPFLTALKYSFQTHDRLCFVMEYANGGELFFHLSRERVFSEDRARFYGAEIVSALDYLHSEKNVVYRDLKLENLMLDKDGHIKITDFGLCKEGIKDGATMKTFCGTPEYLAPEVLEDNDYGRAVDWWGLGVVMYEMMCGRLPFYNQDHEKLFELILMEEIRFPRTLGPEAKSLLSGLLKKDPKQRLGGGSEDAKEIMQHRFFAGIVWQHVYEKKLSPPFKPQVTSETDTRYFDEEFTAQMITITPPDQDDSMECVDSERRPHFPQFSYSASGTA

MAK = MAK (Homo sapiens, UniProt P20794)
MRCKB = biological target: T6, MRCKB (Homo sapiens, UniProt Q9Y5S2)
T6 construct: gene CDC42BPB
T6 sequence (Q9Y5S2 whole entry): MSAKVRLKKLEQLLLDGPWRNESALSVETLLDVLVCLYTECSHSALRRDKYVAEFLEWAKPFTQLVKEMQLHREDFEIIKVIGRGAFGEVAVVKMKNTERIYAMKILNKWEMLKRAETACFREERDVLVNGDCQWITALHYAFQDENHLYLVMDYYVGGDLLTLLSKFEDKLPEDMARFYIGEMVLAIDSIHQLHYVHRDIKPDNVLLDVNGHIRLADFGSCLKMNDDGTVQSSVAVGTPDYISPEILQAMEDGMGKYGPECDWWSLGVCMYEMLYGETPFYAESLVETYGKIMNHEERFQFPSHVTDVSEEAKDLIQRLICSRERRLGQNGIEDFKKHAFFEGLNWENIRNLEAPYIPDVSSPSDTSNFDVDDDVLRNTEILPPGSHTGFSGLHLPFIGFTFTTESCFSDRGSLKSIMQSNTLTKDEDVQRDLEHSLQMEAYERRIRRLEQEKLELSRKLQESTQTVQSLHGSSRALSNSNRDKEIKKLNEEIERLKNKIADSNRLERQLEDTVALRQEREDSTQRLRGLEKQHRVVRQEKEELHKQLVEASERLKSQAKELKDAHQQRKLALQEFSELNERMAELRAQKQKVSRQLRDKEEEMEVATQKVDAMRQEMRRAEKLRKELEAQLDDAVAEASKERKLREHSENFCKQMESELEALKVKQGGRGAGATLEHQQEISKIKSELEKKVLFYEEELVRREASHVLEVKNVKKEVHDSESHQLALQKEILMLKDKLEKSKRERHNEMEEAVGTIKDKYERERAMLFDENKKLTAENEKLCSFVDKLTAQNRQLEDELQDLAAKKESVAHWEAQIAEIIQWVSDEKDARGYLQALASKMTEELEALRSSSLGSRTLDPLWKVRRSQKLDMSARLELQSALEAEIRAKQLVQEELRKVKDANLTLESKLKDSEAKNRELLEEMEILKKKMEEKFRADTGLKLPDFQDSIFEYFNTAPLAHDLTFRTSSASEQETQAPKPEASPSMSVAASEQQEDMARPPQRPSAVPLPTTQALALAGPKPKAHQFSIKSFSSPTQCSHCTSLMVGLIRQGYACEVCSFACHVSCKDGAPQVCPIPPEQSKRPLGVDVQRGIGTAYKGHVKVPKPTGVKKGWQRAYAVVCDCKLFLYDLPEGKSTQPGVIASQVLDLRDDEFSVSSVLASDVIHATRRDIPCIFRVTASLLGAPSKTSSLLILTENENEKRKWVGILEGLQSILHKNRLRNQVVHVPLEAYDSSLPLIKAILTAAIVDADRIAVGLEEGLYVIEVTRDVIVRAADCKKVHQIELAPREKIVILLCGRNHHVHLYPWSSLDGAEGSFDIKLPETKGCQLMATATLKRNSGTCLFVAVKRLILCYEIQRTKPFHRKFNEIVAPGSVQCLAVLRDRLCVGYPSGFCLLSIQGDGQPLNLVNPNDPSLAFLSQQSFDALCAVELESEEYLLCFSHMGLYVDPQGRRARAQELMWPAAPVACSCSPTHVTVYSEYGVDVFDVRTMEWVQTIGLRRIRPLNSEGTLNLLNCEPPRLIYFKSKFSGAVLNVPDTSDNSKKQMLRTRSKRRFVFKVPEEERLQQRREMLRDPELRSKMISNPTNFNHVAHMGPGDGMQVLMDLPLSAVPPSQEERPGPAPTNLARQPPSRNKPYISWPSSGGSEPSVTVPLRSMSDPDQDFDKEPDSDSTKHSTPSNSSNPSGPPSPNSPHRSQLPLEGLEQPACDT

[3] = biological target: T7, ABL1(T315I)-nonphosphorylated (Homo sapiens, UniProt P00519, T315I)
T7 construct: nonphosphorylated

[4] = biological target: T8, RSK2(Kin.Dom.1-N-terminal) (Homo sapiens, UniProt P51812)
T8 construct: gene RPS6KA3; Kin.Dom.1-N-terminal

HPK1 = biological target: T9, HPK1 (Homo sapiens, UniProt Q92918)
T9 construct: gene MAP4K1
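Further: KINOMEscan kinase panel binding assay, signal normalized between DMSO as 100% and a positive control compound as 0%.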

`Cc1cnc2nc1Nc1cccc(c1)COCc1cc(ccc1OCCN1CCCC1)N2` [Compound 1] gave a remaining binding at 0.1 µM (CASK) of 73%, a remaining binding at 0.1 µM (FLT3(D835V)) of 3.3% and a remaining binding at 0.1 µM (PCTK2) of 98%. For the same molecule, the remaining binding at 0.1 µM [1] was 100%, the remaining binding at 0.1 µM (NEK5) was 93% and the remaining binding at 0.1 µM (BRAF(V600E)) was 93%. The remaining binding at 0.1 µM [2] was 80%, the remaining binding at 0.1 µM (PIM3) was 100% and the remaining binding at 0.1 µM (RIPK5) was 93%. It also gave a remaining binding at 0.1 µM (CDK4-cyclinD3) of 95%, a remaining binding at 0.1 µM (CAMK1) of 92% and a remaining binding at 0.1 µM (TTK) of 95%. It also gave a remaining binding at 0.1 µM (CLK2) of 81%, a remaining binding at 0.1 µM (AMPK-alpha2) of 97% and a remaining binding at 0.1 µM (ULK3) of 85%. The remaining binding at 0.1 µM (LYN) was 92%, the remaining binding at 0.1 µM (WNK1) was 90% and the remaining binding at 0.1 µM (MAP4K3) was 83%. For the same molecule, the remaining binding at 0.1 µM (AKT1) was 100%, the remaining binding at 0.1 µM (MAK) was 100% and the remaining binding at 0.1 µM (MRCKB) was 96%. It also gave a remaining binding at 0.1 µM [3] of 80%, a remaining binding at 0.1 µM [4] of 56% and a remaining binding at 0.1 µM (HPK1) of 72%.
